Results from patent publication US10732174B2, “Three dimensional tissues for high-throughput assays” (INVIVOSCIENCES, INC., priority 2008, dated 2020).
Entries after “also recorded” stand apart in the source; their conditions may differ. Read-outs that look alike come from different tables or passages of the source.

Tests used:
REF-52 cells = conditions: for F-actin morphology in cells, microscopy: REF monolayers, 3 hr and 24 hr; for cytotoxicity signs in cell monolayers (confluency, nuclei, shrinkage): 24 hours
Experimental: REF-52 cells were plated on 35 mm culture dishes (50,000 cells) in 10% FBS medium (2 ml). Cells are incubated over night and then treated with compounds. […] Cells were incubated with drugs for 24 hours prior to fixing. To fix, treated cells were rinsed once with 2 ml of phosphate buffered saline (PBS, D5652) and then incubated in 1 ml of 4% paraformaldehyde (Sigma) solution (in PBS) for 30 min. Fixed cells are rinsed twice and then stored in 2 ml of PBS.
Fixed REF-52 cells were permeabilized by incubating in 1 ml of 0.1% Triton (BP151, Fisher Scientific) solution (in PBS) for 15 min. Permeabilized cells were rinsed twice with 1 ml TBST buffer and then blocked with 1 ml of 5% goat serum in TBST for 1 hour. One milliliter of 1:200 diluted Alexa 568 conjugated phalloidin (A12380, Invitrogen) in TBST with 2% goat serum was then added to the cells. This staining solution also contained 400 nM of DAPI (D9564). Cells were stained for 30 min and then rinsed twice with TBST. Labeled cells were mounted with Vectashield (Vector Laboratories, Burlingame, Calif.), covered with a cover slide and then sealed with nail polish. The plate was then inverted on to a Leica SP5 confocal microscope (Leica Microsystems, Bannockburn, Ill.) and imaged with 63× water immersion objective. Alexa 568 was excited using the 543 laser line and DAPI was excited using a MaiTai multi-photon laser.

[1] = system: F-actin in HTCs of REF-52 cells; experiment: F-actin content of HTCs, Alexa-phalloidin, plate reader; type: cell-based, rat; conditions: HTC treated 24 hours
Text: FIG. 5A-FIG. 5W. FIG. 5A is a photograph of The Palpator™. The system includes an isometric force transducer (a), probe baths (b), and a hydrogel tissue construct (HTC) stage (c) on a temperature regulator plate (d). FIG. 5B is a photograph showing the x-y-z motion robotic arm which positions the force transducer with attached probe above the HTCs and lowers the probe onto the tissue for force measurement. FIG. 5C is a schematic of the robotic arm with attached force transducer and probe. FIG. 5D is a photograph of the probe positioned 1 mm above the mid-plane of a HTC (a) and then lowered until it first touches (b) and then stretches (c) the tissue. FIG. 5E is a graph showing representative forces recorded during HTC indentation. Arrows a, b, and c show force measurements associated with probe positions shown in (D). […] HTCs were preconditioned, then treated with varying concentrations of the four drugs as indicated. Forces were measured at 3 (f) and 24 hr (g). Force measurements were expressed relative to control, medium treated, HTCs (Fc). […] HTCs treated with drugs for 24 hours were fixed and labeled with Alexa 568 conjugated phalloidin. Fluorescence intensity was read on a plate reader and plotted relative to control, media treated, HTCs (Ic). […] At 3 hr (i-m) and 24 hr (n-r, s-w) post treatment, representative monolayers were fixed and stained with Alexa 568 conjugated phalloidin and DAPI. […] Note the larger scale bar in (g) and (l). Images were captured on a Leica SP5 confocal microscope using a water-immersion 63× objective, scale bar=50 μm.
Tissue force is maintained through the integrity of the cellular cytoskeleton, especially actin and myosin. To quantify amount of F (filamentous)-actin in the HTCs treated with the compounds, the HTCs were stained with Alexa […] conjugated phalloidin. […] This is in agreement with our previous report that CD mediated reduction in tissue force was due to the loss of intact F-actin. However, force reductions by H1152 and DNP were not related to the loss of F-actin. […] By 24 hours, short F-actins were re-distributed within less-spread (FIG. 5O) and binuclear (FIG. 5T) cells.

[2] = system: mitochondrial membrane potential in HTCs of REF-52 cells; experiment: HTC TMRE labeling, mitochondrial potential; type: cell-based, rat; conditions: for effect on mitochondrial potential, in words: HTC, TMRE; for EC50: Rattus norvegicus, read-out: EC50 of TMRE signal reduction (MMP uncoupling)
Experimental: The ethyl ester of tetramethylrhodamine (TMRE, T-669, Invitrogen, Carlsbad, Calif.) was used to quantify the mitochondrial potential of the HTCs. HTCs were incubated in 100 nM TMRE for 30 min and then in phenol red free 10% FBS DMEM for 60 min. Phenol red free medium was used to prevent interference with TMRE fluorescence reading. Following labeling, HTCs were preconditioned with three stretches and then prior to background force measurement. HTC TMRE signal was then read on a Synergy HT plate reader (Biotek Instruments, Winooski, Vt.). A custom made adapter plate was used to position the tissue molds on the plate-holding rack of the plate reader. Fluorescence signal was read from the bottom using the 543/590 excitation/emission filter set and a gain setting of 50. TMRE fluorescence intensity was also read following each force measurement at predetermined time points after drug treatments.
TMRE is cationic and accumulates in the mitochondria as a function of MMP. […] More detailed investigation of DNP's effect on TMRE accumulation using confocal microscopy improved signal detection in both monolayers and HTCs (FIG. 6C and FIG. 6D).

[3] = system: hydrogel tissue constructs (HTCs) of REF-52 cells; experiment: HTC force measurement (Palpator); type: cell-based, rat; conditions: for effect on tissue (HTC contractile) force, in words: 3 and 24 hr
Experimental: Rat embryonic fibroblasts (REF-52) were cultured in Dulbecco's Modified Eagle's Medium (DMEM, MT10013CM, Fisher Scientific, Pittsburgh, Pa.) supplemented with 10% fetal bovine serum (FBS, S11050, Atlanta Biologicals, Lawrenceville, Ga.). Cells were sub-cultured every two to three days. To make hydrogel tissue constructs (HTCs), REF-52 cells (between passages 40 to 70) were dissociated from culture plates by treating with 0.05% trypsin (MT-25-025-CI, Fisher Scientific) for 10 to 15 min. The cells were then centrifuged at 1000 g for 10 min. The trypsin solution was decanted and the cell pellet was re-suspended in 10% FBS DMEM medium. This cell suspension was diluted in HTC tissue solution to achieve a final concentration of 8×10^5 cells per ml. The HTC tissue solution consisted of 10% FBS DMEM, 1 mg/ml of type 1 collagen (354249, BD Biosciences, San Jose, Calif.) in 0.02 N acetic acid, sufficient sodium hydroxide to neutralize the acid in the collagen, and sufficient 5×DMEM to compensate for the volume of collagen and NaOH. To prevent premature collagen polymerization, the HTC tissue solution was kept on ice until its distribution into our custom-made tissue molds (FIG. 3). Each mold contains 8 separate HTC-forming wells with two built-in horizontal support bars. Three hundred microliters of the HTC tissue solution was aliquoted into each well in these molds and then incubated for 30 min at 37° C. and 5% CO2. After the incubation period, […] of 10% FBS DMEM medium was added to each well and the molds were further incubated for 48 hr. In this time, the solution contracted to form HTCs that span the support bars in the wells.
The Palpator™ (as described in U.S. Pat. No. 7,449,306, which is incorporated herein by reference in its entirety) was used to quantify the contractility of the HTCs. The molds were placed on the stage of the Palpator™ which automatically inserted a probe into each well and stretched the individual HTC. The probe was connected to a force transducer which measured the resistance force induced in the HTC in response to stretch and exported the values to a computer for recording. A custom Matlab algorithm was used to process and analyze the force data to report a numerical parameter that is indicative of the active cell force in the HTC. To obtain stable measurements of the HTC contractile force, it was necessary to precondition the HTCs by stretching three times prior to actual force measurement. Preconditioning was not necessary if subsequent force measurements were within 30 min of the previous stretch. HTCs at 24 hr post treatment were always pre-conditioned before force measurement.

[4] = system: human epidermoid cell lines; conditions: reported; cited from earlier work
HTCs of REF-52 cells = system: HTCs of REF-52 cells
Experimental: 3-(4,5-dimethylthiazol-2-yl)-2,5-diphenyltetrazolium (MTT, M-6494, Invitrogen) was used to quantify cell viability in the HTCs. At predetermined times following drug exposure, MTT was added to each well to achieve 0.5 mg/ml. MTT was left in the wells for 2 hr and then removed. The formazan dye that forms in the cells were then suspended in 500 μl of isopropanol (S77795, Fisher Scientific) containing 0.1 N hydrochloric acid. Two hundred microliters of the formazan solution is then put into a 96-well plate well and read on the Synergy HT plate reader. Absorbance at 570 and 650 nm were recorded and the difference (A570-A650) was used as the absorbance intensity of the formazan.
All chemicals are from Sigma (Sigma-Alrich, St. Louis, Mo.) unless otherwise noted. […] DNP was diluted to 1 M in DMSO and then to 100, 10, and 1 mM in -F/G/P DMEM. Following HTC preconditioning and background force (i.e. pre-drug) measurement, 50 μl of the appropriate drug dilutions were added to each well to achieve the desired treatment concentration. Fifty microliters of -F/G/P DMEM was added to the control wells. Upon drug addition, medium in the wells was mixed by pipetting four times.
Finally to measure the compounds' effects on cellular viability, the assay using 3-(4,5-Dimethylthiazol-2-yl)-2,5-diphenyltetrazolium bromide (MTT) was performed. In cells, the yellow MTT is converted to a purple colored formazan by succinate dehydrogenase and this change can be quantified by light absorbance between 500-600 nm was quantitatively recorded using the plate reader.

HepG2 cells = conditions: previously reported; cited from earlier work
[5] = HTC, 3 hr treatment, read-out: EC50 of tissue force reduction

Cc1cncc2cccc(S(=O)(=O)N3CCCNC[C@@H]3C)c12 [H-1152]
F-actin morphology in cells, microscopy (REF-52 cells; listed as RKI): did not dramatically affect F-actin morphology
F-actin morphology in cells, microscopy (REF-52 cells; listed as RKI1): limited to no effects
F-actin content of HTCs (Alexa-phalloidin intensity) [1]: comparable to controls
effect on mitochondrial potential, in words ([2]; listed as RKI): limited mitochondrial and viability toxicity
effect on mitochondrial potential, in words ([2]; listed as RKI1): minimal uncoupling activity
effect on tissue (HTC contractile) force, in words ([3]; HTC): dose-dependently reduced tissue force
effect on tissue (HTC contractile) force, in words ([3]; HTC, listed as RKI): very effective at reducing HTC force
effect on tissue (HTC contractile) force, in words ([3]; HTC, listed as RKI1): dose-dependently reduced HTC contractile force; also recorded: effectively reduced tissue force
EC50 [3, 5]: ~0.1 µM
EC50 ([3]; HTC, time not stated at place, read-out: force-reducing EC50): 0.1 µM

C=C1[C@@H](C)[C@H]2[C@H](Cc3ccccc3)NC(=O)[C@]23[C@H](OC(C)=O)/C=C/[C@@](C)(O)C(=O)[C@@H](C)C/C=C/[C@H]3[C@@H]1O [CD, Cytochalasin D]
cytotoxicity signs in cell monolayers (confluency, nuclei, shrinkage) (REF-52 cells): cytotoxicity was evident
F-actin morphology in cells, microscopy (REF-52 cells): extensive actin depolymerization by 3 hr; also recorded: extensive disruption of F-actin as early as 3 hours
LD50 [4]: 5 to 30 µM
F-actin content of HTCs (Alexa-phalloidin intensity) [1]: significantly reduced
F-actin content of HTCs (Alexa-phalloidin intensity) ([1]; listed as Cytochalasin D): reduced cellular F-actin
effect on tissue (HTC contractile) force, in words ([3]; HTC): dose-dependently reduced HTC contractile force; also recorded: dose-dependently reduced tissue force; also recorded: very effective at reducing HTC force
EC50 [3, 5]: ~0.1 µM
reduction of MTT signal (HTCs of REF-52 cells; 0.2 μM, 24 hours): 40%
reduction of MTT signal (HTCs of REF-52 cells; 2 μM, 24 hours): 40%

C[S+](C)[O-] [DMSO, dimethyl sulfoxide]
formazan absorbance relative to control (A/Ac) (HTCs of REF-52 cells; rat, 24 h, 10 %): 0.11±9×10^−3

C=C(C)[C@H]1Cc2c(ccc3c2O[C@@H]2COc4cc(OC)c(OC)cc4[C@@H]2C3=O)O1 [ROT, rotenone]
cytotoxicity signs in cell monolayers (confluency, nuclei, shrinkage) (REF-52 cells): cytotoxicity was evident; also recorded: less than that of control; also recorded: Noticeable nuclear fragmentation
F-actin morphology in cells, microscopy (REF-52 cells): limited to no effects; also recorded: did not dramatically affect F-actin morphology
F-actin content of HTCs (Alexa-phalloidin intensity) [1]: inconclusive
effect on mitochondrial potential, in words [2]: moderate negative impact
effect on tissue (HTC contractile) force, in words ([3]; HTC): dose-dependently reduced HTC contractile force; also recorded: also reduced tissue force; also recorded: moderate negative impact
reduction of MTT signal (HTCs of REF-52 cells; 10 μM, 24 hours): 40%
toxicity (HepG2 cells): 25%

O=[N+]([O-])c1ccc(O)c([N+](=O)[O-])c1 [DNP, 2,4-dinitrophenol]
cytotoxicity signs in cell monolayers (confluency, nuclei, shrinkage) (REF-52 cells): less than that of control
F-actin morphology in cells, microscopy (REF-52 cells): limited to no effects; also recorded: did not dramatically affect F-actin morphology
F-actin content of HTCs (Alexa-phalloidin intensity) [1]: comparable to controls
reduction in TMRE EC50 by 24 hours treatment ([2]; 24 hr vs 3 hr): 3.6 fold
effect on mitochondrial potential, in words [2]: dose-dependently uncoupled HTC mitochondrial potential; also recorded: extensive uncoupling effect
EC50 ([2]; REF52, 3 h): ~340 µM
EC50 ([2]; REF52, 24 h): ~95 µM
reduction in EC50 of effect on tissue force ([3]; 24 hr vs 3 hr): 65 fold
concentration needed to reduce tissue force relative to H-1152 or CD ([3]; HTC): ~10,000 fold
effect on tissue (HTC contractile) force, in words ([3]; HTC): dose-dependently reduced HTC contractile force; also recorded: also reduced tissue force; also recorded: very effective at reducing HTC force
EC50 ([3]; Rattus norvegicus, REF52, 3 h, read-out: EC50 of tissue force reduction): 1300 µM
EC50 ([3]; Rattus norvegicus, REF52, 24 h, read-out: EC50 of tissue force reduction): 20 µM
effect on HTC viability / MTT signal, in words (HTCs of REF-52 cells; 24 hours): did not affect MTT signal
